Reference: US20050096349A1, “Methods to prevent or ameliorate medication-, procedure-or stress-induced cognitive and speech dysfunction and methods to optimize cognitive and speech functioning” (priority 2003, published 2005)

What was measured:
[1] = tested on: feeling "cloudy" and "disoriented"; assay: Example 3: case report, atomoxetine added for feeling cloudy and disoriented on olanzapine, clonazepam, fiorinal; format: in vivo, patient
Experimental: Patient is a person with major depression, panic, generalized anxiety disorder, chronic headaches and fibromyalgia. They are on escitalopram 20 mg po qd, olanzapine 7.5 mg po qhs, clonazepam 0.5 mg po bid, and fiorinal prn. […] Atomoxetine was initiated at 18 mg po qd and increased to 25 mg po qd after 8 days.

word finding difficulty = assay: Example 1: case report, atomoxetine added for word finding difficulty on topiramate; format: in vivo, patient; settings: for word finding (patient description): person on topiramate
Excerpt: (§1) Patient is a person with compulsive shopping (impulse control disorder, not otherwise specified), type II diabetes, and obesity. They have no other psychiatric disorders including mood or anxiety disorders.

[2] = tested on: feeling dull and having difficulty concentrating
[3] = tested on: compulsive shopping (impulse control disorder, not otherwise specified); assay: Example 1: case report, topiramate for compulsive shopping; format: in vivo, patient
Excerpt: as §1

Q: With CNCC[C@@H](Oc1ccccc1C)c1ccccc1 [Atomoxetine, atomoxetine] as the molecule, how does the “duration of stable effect” value ([1]; atomoxetine 25 mg po qd) read?
A: The value was 2 months.

Q: What about the “tolerability of other medications in terms of cognitive functioning” value ([1]; on atomoxetine 25 mg po qd) of the same molecule?
A: Its value is “able to tolerate their other medications without difficulty in terms of cognitive functioning”.

Q: And the “concentration, attention, focus (patient description)” value ([1]; person on escitalopram, olanzapine, clonazepam, fiorinal, atomoxetine 18 mg po qd increased to 25 mg po qd after 8 days)?
A: The value was “improved concentration, attention, and “focus””.

Q: And the “tolerability of higher topiramate dose” value (word finding difficulty; atomoxetine 40 mg po qd, tolerated for 2 months)?
A: Its value is “could tolerate a topiramate dose of 100 mg without difficulty”.

Q: And the “word finding (patient description)” value (word finding difficulty; atomoxetine 25 mg po qd, over the next month)?
A: The value was “mild improvement in word finding”.

Q: And the “word finding (patient description)” value (word finding difficulty; atomoxetine 40 mg po qd, over the following month)?
A: The value was “noticeable improvement in their word finding”.

Q: And the “improvement compared with 25 mg (patient description)” value ([2]; atomoxetine 40 mg po qd)?
A: Its value is “did not have the same improvement as at 25 mg”.

Q: What about the side effects ([2]; atomoxetine 40 mg po qd) of the same molecule?
A: Its side effects is “felt dizzy and “spacy””.

Q: And the “concentration and side effects” value ([2]; atomoxetine alternating 25 mg and 40 mg po qd every other day)?
A: Its value is “improved concentration without significant side effects”.

Q: And the “tolerability of effective dose of alpraxolam (2-4 mg/day)” value ([2]; on atomoxetine alternating 25 mg and 40 mg po qd)?
A: The value was “without difficulties in concentration/cognitive functioning”.

Q: And the “concentration and ability to work (patient description)” value ([2]; person on escitalopram 20 mg po qd and alprazolam, atomoxetine 25 mg po qd, within a few days)?
A: The value was “improved concentration and improved ability to work”.

Q: What does the source list for CC1(C)O[C@@H]2[C@@H](CO[C@@]3(COS(N)(=O)=O)OC(C)(C)O[C@@H]23)O1 [topiramate]?
A: weight ([3]; higher dosages of topiramate): decreased weight; urges and control over shopping behaviors ([3]; person, topiramate dose slowly increased): decreased urges and improved control over their shopping behaviors; cognitive side effect ([3]; topiramate increased to 75 mg po qd): word finding difficulty which persisted
